Biological target: PD-1/PD-L1 PPI (Homo sapiens, UniProt Q9NZQ7)
Assay: PDL1/PD1 Binding Assay
Settings: PDL1-6×His 0.3 nM, PD1-Fc-Avi-Biotin 2.5 nM, Acceptor/Donor beads, Envision reader
Protocol: Compounds to be tested were serially diluted in DMSO, and further diluted in assay buffer (25 mM Hepes pH 7.4, 150 mM NaCl, 0.005% Tween 20, BSA 0.01%). Diluted compounds were added to the wells with final concentration of DMSO at 1%. PDL1-6×His protein was added to the wells, mixed well with compound. The plates were incubated for 30 min at room temperature. PD1-Fc-Avi-Biotin protein was added to the wells. Final concentration of PDL1 and PD1 protein is 0.3 nM and 2.5 nM, respectively. After a binding time of 30 min at room temperature, Anti-6×His Acceptor beads (final concentration 20 ug/ml) were added to the wells, and the incubation continued for 1 h. Streptavidin Donor beads (final concentration 20 ug/mL) were added at reduced light. The plates were sealed with foil and incubated in the dark for additional 1 h or overnight before reading on an Envision reader. The IC50 values were determined by fitting the curves using a four-parameter equation in Graphpad Prism 8.

Chain of PD-1/PD-L1 PPI (Q9NZQ7 19-238 limits assumed): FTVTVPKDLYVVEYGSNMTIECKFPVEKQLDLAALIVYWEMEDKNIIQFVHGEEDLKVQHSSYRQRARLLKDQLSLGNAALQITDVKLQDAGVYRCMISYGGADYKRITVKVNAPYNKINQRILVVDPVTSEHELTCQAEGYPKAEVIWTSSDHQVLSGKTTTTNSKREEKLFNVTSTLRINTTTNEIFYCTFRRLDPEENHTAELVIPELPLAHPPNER

| Compound | IC50 |
| --- | --- |
| COc1nc(-c2cccc(-c3cccc(NC(=O)c4cn(C)c(=O)n(C)c4=O)c3Cl)c2Cl)cc2c1[C@@H](NC[C@@H]1CCC(=O)N1)CC2 (single isomer, unassigned) [Compound A-1] | ≤ 10 nM |
| COc1nc(-c2cccc(-c3cccc(NC(=O)c4cn(C)c(=O)n(C)c4=O)c3C)c2Cl)cc2c1[C@@H](NC[C@@H]1CCC(=O)N1)CO2 (single isomer, unassigned) [Compound A-19] | ≤ 10 nM |
| COc1nc(-c2cccc(-c3cccc(NC(=O)c4cn(C)c(=O)n(C)c4=O)c3Cl)c2Cl)cc2c1[C@@H](N1CC3(CCC(=O)N3)C1)CC2 (single isomer, unassigned) [Compound A-20] | ≤ 10 nM |
| COc1nc(-c2cccc(-c3cccc(NC(=O)c4cn(C)c(=O)n(C)c4=O)c3Cl)c2Cl)cc2c1[C@@H](N1CC3(CCNC3=O)C1)CC2 (single isomer, unassigned) [Compound A-21] | ≤ 10 nM |
| COc1nc(-c2cccc(-c3cccc(NC(=O)c4cn(C)c(=O)n(C)c4=O)c3Cl)c2Cl)cc2c1[C@H](N1CC3(CCNC3=O)C1)CC2 (single isomer, unassigned) [Compound A-22] | ≤ 10 nM |
| COc1nc(-c2cccc(-c3cccc(NC(=O)c4cn(C)c(=O)n(C)c4=O)c3Cl)c2Cl)cc2c1[C@H](N1CC3(CN(C(C)=O)C3)C1)CC2 (single isomer, unassigned) [Compound A-23] | ≤ 10 nM |
| COc1nc(-c2cccc(-c3cccc(NC(=O)c4cn(C)c(=O)n(C)c4=O)c3Cl)c2Cl)cc2c1[C@@H](N1CC(OC)C1)CC2 (single isomer, unassigned) [Compound A-24] | ≤ 10 nM |
| COc1nc(-c2cccc(-c3cccc(NC(=O)c4cn(C)c(=O)n(C)c4=O)c3Cl)c2Cl)cc2c1[C@@H](N1CC(O)C1)CC2 (single isomer, unassigned) [Compound A-26] | ≤ 10 nM |
| COc1nc(-c2cccc(-c3cccc(NC(=O)c4cn(C)c(=O)n(C)c4=O)c3Cl)c2F)cc2c1[C@H](N[C@@H]1CCOC[C@@H]1O)CC2 (single isomer, unassigned) [Compound A-32] | ≤ 10 nM |
| COc1nc(-c2cccc(-c3cccc(NC(=O)c4cn(C)c(=O)n(C)c4=O)c3C)c2C)cc2c1[C@H](N[C@@H]1CCOC[C@@H]1O)CC2 (single isomer, unassigned) [Compound A-34] | ≤ 10 nM |
| COc1nc(-c2cccc(-c3cccc(NC(=O)c4cn(C)c(=O)n(C)c4=O)c3C)c2F)cc2c1[C@H](N[C@@H]1CCOC[C@@H]1O)CC2 (single isomer, unassigned) [Compound A-35] | ≤ 10 nM |
| COc1nc(-c2cccc(-c3cccc(NC(=O)c4cn(C)c(=O)n(C)c4=O)c3F)c2Cl)cc2c1[C@H](N[C@@H]1CCOC[C@@H]1O)CC2 (single isomer, unassigned) [Compound A-36] | ≤ 10 nM |
| COc1nc(-c2cccc(-c3cccc(NC(=O)c4cn(C)c(=O)n(C)c4=O)c3F)c2C)cc2c1[C@H](N[C@@H]1CCOC[C@@H]1O)CC2 (single isomer, unassigned) [Compound A-37] | ≤ 10 nM |
| COc1nc(-c2cccc(-c3cccc(NC(=O)c4cn(C)c(=O)n(C)c4=O)c3F)c2F)cc2c1[C@H](N[C@@H]1CCOC[C@@H]1O)CC2 (single isomer, unassigned) [Compound A-38] | ≤ 10 nM |
| COc1nc(-c2cccc(-c3cccc(NC(=O)c4cn(C)c(=O)n(C)c4=O)c3C)c2Cl)cc2c1[C@H](NC[C@@H]1CCC(=O)N1)CC2 [Compound A-10] | ≤ 10 nM |
| COc1nc(-c2cccc(-c3cccc(NC(=O)c4cn(C)c(=O)n(C)c4=O)c3F)c2Cl)cc2c1[C@H](NC[C@@H]1CCC(=O)N1)CC2 [Compound A-11] | ≤ 10 nM |
| COc1nc(-c2cccc(-c3cccc(NC(=O)c4cn(C)c(=O)n(C)c4=O)c3Cl)c2C)cc2c1[C@H](NC[C@@H]1CCC(=O)N1)CC2 [Compound A-12] | ≤ 10 nM |
| COc1nc(-c2cccc(-c3cccc(NC(=O)c4cn(C)c(=O)n(C)c4=O)c3C)c2C)cc2c1[C@H](NC[C@@H]1CCC(=O)N1)CC2 [Compound A-13] | ≤ 10 nM |
| COc1nc(-c2cccc(-c3cccc(NC(=O)c4cn(C)c(=O)n(C)c4=O)c3F)c2C)cc2c1[C@H](NC[C@@H]1CCC(=O)N1)CC2 [Compound A-14] | ≤ 10 nM |
| COc1nc(-c2cccc(-c3cccc(NC(=O)c4cn(C)c(=O)n(C)c4=O)c3Cl)c2F)cc2c1[C@H](NC[C@@H]1CCC(=O)N1)CC2 [Compound A-15] | ≤ 10 nM |
| COc1nc(-c2cccc(-c3cccc(NC(=O)c4cn(C)c(=O)n(C)c4=O)c3C)c2F)cc2c1[C@H](NC[C@@H]1CCC(=O)N1)CC2 [Compound A-16] | ≤ 10 nM |
| CCOC(=O)N(C[C@@H]1CCC(=O)N1)[C@H]1CCc2cc(-c3cccc(-c4cccc(NC(=O)c5cn(C)c(=O)n(C)c5=O)c4C)c3Cl)nc(OC)c21 [Compound E-1] | ≤ 10 nM |
| COc1nc(-c2cccc(-c3cccc(NC(=O)c4cn(C)c(=O)n(C)c4=O)c3C)c2Cl)cc2c1[C@@H](N(C[C@@H]1CCC(=O)N1)C(=O)OCc1oc(=O)oc1C)CC2 [Compound F-1] | ≤ 10 nM |

Test system: PD-1/PD-L1 interaction
Assay: PD-1/PD-L1 NFAT Reporter Assay (co-culture of Jurkat T cells overexpressing PD-1 and PD-L1 expressing CHO cells)
Assay type: cell-based
Settings: Homo sapiens, Jurkat, 6 h, co-culture 6 hrs at 37° C., NFAT-mediated luciferase activity
Protocol: Blocking the PD-1/PD-L1 interaction will release the inhibitory signal and results in TCR signaling and NFAT-mediated luciferase activity.
CHO cells expressing surface-bound anti-CD3 antibodies and PD-L1 were first seeded overnight and treated with the compounds. Jurkat cells overexpressing PD-1 and a luciferase construct under NFAT promoter were then immediately seeded on the monolayer of CHO cells. The co-culture was then incubated for 6 hrs at 37° C. Luciferase activity was assessed by adding the ONE-Glo reagent and measuring luminescence with a plate reader. EC50 values were determined from the fit of the dose-response curves.

| Compound | EC50 |
| --- | --- |
| COc1nc(-c2cccc(-c3cccc(NC(=O)c4cn(C)c(=O)n(C)c4=O)c3Cl)c2Cl)cc2c1[C@@H](NC[C@@H]1CCC(=O)N1)CC2 (single isomer, unassigned) [Compound A-1] | ≤ 10 nM |
| COc1nc(-c2cccc(-c3cccc(NC(=O)c4cn(C)c(=O)n(C)c4=O)c3C)c2Cl)cc2c1[C@@H](NC[C@@H]1CCC(=O)N1)CO2 (single isomer, unassigned) [Compound A-19] | 10 to 100 nM |
| COc1nc(-c2cccc(-c3cccc(NC(=O)c4cn(C)c(=O)n(C)c4=O)c3Cl)c2Cl)cc2c1[C@@H](N1CC3(CCC(=O)N3)C1)CC2 (single isomer, unassigned) [Compound A-20] | 10 to 100 nM |
| COc1nc(-c2cccc(-c3cccc(NC(=O)c4cn(C)c(=O)n(C)c4=O)c3Cl)c2Cl)cc2c1[C@@H](N1CC3(CCNC3=O)C1)CC2 (single isomer, unassigned) [Compound A-21] | 100 to 1000 nM |
| COc1nc(-c2cccc(-c3cccc(NC(=O)c4cn(C)c(=O)n(C)c4=O)c3Cl)c2Cl)cc2c1[C@H](N1CC3(CCNC3=O)C1)CC2 (single isomer, unassigned) [Compound A-22] | ≤ 10 nM |
| COc1nc(-c2cccc(-c3cccc(NC(=O)c4cn(C)c(=O)n(C)c4=O)c3Cl)c2Cl)cc2c1[C@H](N1CC3(CN(C(C)=O)C3)C1)CC2 (single isomer, unassigned) [Compound A-23] | ≤ 10 nM |
| COc1nc(-c2cccc(-c3cccc(NC(=O)c4nn(C)c(=O)n(C)c4=O)c3Cl)c2Cl)cc2c1[C@H](N1CC3(CN(C(C)=O)C3)C1)CC2 (single isomer, unassigned) [Compound A-71] | ≤ 10 nM |
| COc1nc(-c2cccc(-c3cccc(NC(=O)c4cn(C)c(=O)n(C)c4=O)c3Cl)c2C#N)cc2c1[C@@H](N[C@@H]1CCOC[C@@H]1O)CC2 (single isomer, unassigned) [Compound A-73] | 10 to 100 nM |
| COc1nc(-c2cccc(-c3cccc(NC(=O)c4nn(C)c(=O)n(C)c4=O)c3Cl)c2Cl)cc2c1[C@@H](N[C@@H]1CCOC[C@@H]1O)CC2 (single isomer, unassigned) [Compound A-76] | ≤ 10 nM |
| COc1nc(-c2cccc(-c3cccc(NC(=O)c4nn(C)c(=O)n(C)c4=O)c3C)c2Cl)cc2c1[C@@H](N[C@@H]1CCOC[C@@H]1O)CC2 (single isomer, unassigned) [Compound A-77] | ≤ 10 nM |
| COc1nc(-c2cccc(-c3cccc(NC(=O)c4cn(C)c(=O)n(C)c4=O)c3C)c2Cl)cc2c1[C@@H](NC[C@@H]1CCC(=O)N1)C(C)(C)C2 (single isomer, unassigned) [Compound A-123] | > 5000 nM |
| COc1nc(-c2cccc(-c3cccc(NC(=O)c4cn(C)c(=O)n(C)c4=O)c3C)c2Cl)cc2c1[C@H](NC[C@@H]1CCC(=O)N1)C(C)(C)C2 (single isomer, unassigned) [Compound A-124] | 1000 to 10000 nM |
| COc1nc(-c2cccc(-c3cccc(NC(=O)c4cn(C)c(=O)n(C)c4=O)c3C)c2Cl)cc2c1[C@H](NC[C@@H]1CNC(=O)C1)CC2 (single isomer, unassigned) [Compound A-138] | ≤ 10 nM |
| COc1nc(-c2cccc(-c3cccc(NC(=O)c4cn(C)c(=O)n(C)c4=O)c3C)c2Cl)cc2c1[C@@H](N1CC3(CCC(=O)N3)C1)CC2 (single isomer, unassigned) [Compound A-139] | ≤ 10 nM |
| COc1nc(-c2cccc(-c3cccc(NC(=O)c4cn(C)c(=O)n(C)c4=O)c3F)c2F)cc2c1[C@@H](NC[C@@H]1CCC(=O)N1)CC2 [Compound A-9] | 10 to 100 nM |
| COc1cc(-c2cccc(-c3cccc(NC(=O)c4cn(C)c(=O)n(C)c4=O)c3Cl)c2Cl)cc2c1CC(NC[C@@H]1CCC(=O)N1)C2 (some centres unmarked) [Compound A-48] | 100 to 1000 nM |
| COc1nc(-c2cccc(-c3cccc(NC(=O)c4cn(C)c(=O)n(C)c4=O)c3Cl)c2C#N)cc2c1[C@@H](NC[C@@H]1CCC(=O)N1)CC2 [Compound A-50] | 10 to 100 nM |
| COc1nc(-c2ccc(F)c(-c3cccc(NC(=O)c4cn(C)c(=O)n(C)c4=O)c3C)c2F)cc2c1[C@H](N1CC(O)C1)CC2 [Compound A-81] | 10 to 100 nM |
| COc1nc(-c2cccc(-c3cccc(NC(=O)c4cn(C)c(=O)n(C)c4=O)c3Cl)c2Cl)cc2c1C(N[C@H]1CCOC[C@@H]1O)CC2 (stereo partly drawn) [Compound D-8a] | 10 to 100 nM |
| COc1nc(-c2cccc(-c3cccc(NC(=O)c4cn(C)c(=O)n(C)c4=O)c3C)c2Cl)cc2c1C(NCC(=O)O)CC2 [Compound D-12] | 10 to 100 nM |
| COc1nc(-c2cccc(-c3cccc(NC(=O)c4cn(C)c(=O)n(C)c4=O)c3C)c2Cl)cc2c1C(NCC(=O)N1CCCC1)CC2 [Compound D-13] | 10 to 100 nM |
| COc1nc(-c2cccc(-c3cccc(NC(=O)c4cn(C)c(=O)n(C)c4=O)c3Cl)c2Cl)cc2c1C(N1CC3(CNC(=O)C3)C1)CC2 [Compound D-14] | ≤ 10 nM |
| COc1nc(-c2cccc(-c3cccc(NC(=O)c4cn(C)c(=O)n(C)c4=O)c3C)c2Cl)cc2c1[C@@H](N(C)C[C@@H]1CCC(=O)N1)CC2 [Compound I-1] | ≤ 10 nM |

Same assay, conditions: co-culture 6 hrs at 37° C., NFAT-mediated luciferase activity

| Compound | EC50 |
| --- | --- |
| COc1nc(-c2ccc(F)c(-c3cccc(NC(=O)c4cn(C)c(=O)n(C)c4=O)c3C)c2F)cc2c1[C@H](N1CC(O)C1)CC2 [Compound A-82] | 10 to 100 nM |

Source: patent publication US12534450B2, “Methods and compositions for targeting PD-L1” (Aligos Therapeutics, Inc., priority 2021, dated 2026)
